Assay results from patent US8426365B2, “Method of treating or preventing tissue deterioration, injury or damage due to congestive heart failure” (Regenerx Biopharmaceuticals, Inc., priority 2005, dated 2013).

Experiments:
[1] = system: mouse MI-induced heart failure model; experiment: Mouse myocardial infarction (MI) heart failure model; assay type: in vivo, C57 black mice; conditions: 150 μg/mouse i.p. immediately after MI, then every three days for 4 weeks
Procedure: The procedures used in this study are exactly same as that reported in Nature (432:466-472, 2004). Briefly, C57 black mice, 14 weeks old, were used in this study. Mice were given thymosin β4 (Bachem, Lot #FTHYB40501B) (150 μg/mouse) immediately after myocardial infarction and then every three days for 4 weeks by i.p. injection. The parameters of this study included cardiac morphology and function by echocardiography (echo), invasive cardiac function measurement using Millar catheter, survival rate, and histochemical analysis.

[2] = system: normal (BL10) mice; experiment: Grip strength meter, normal (BL10) mice; assay type: in vivo; conditions: BL10 treated
Procedure: (§1) Four groups of mice were treated with thymosin beta 4. Group 1 was normal mice (BL10) that were given placebo (untreated). Group 2 was normal mice that were treated with thymosin beta 4. Group 3 was dystrophin deficient (mdx) mice treated with placebo and Group 4 was mdx mice treated with thymosin beta 4. Mice were treated with 150 micrograms of thymosin beta 4 in 300 microliters of buffer given intraperitoneally twice a week and placebo mice were given 300 microliters of buffer only. The mice exercised on a treadmill at a speed of 12 meters/minute for 30 minutes twice a week. Functional, behavioral and echocardiographic data were obtained at baseline and after 2 months, 4 months and 6 months of treatment.
(§2) Functional data were non-invasive measurements of skeletal muscle function. The muscle strength of the forelimbs and hindlimbs was assessed using a grip strength meter. The animals were allowed to hold onto the meter platform and then were slowly pulled until they lost their grip. The amount of force needed to free the grip was recorded. Multiple measurements were taken for each mouse at each time point. The same protocol was followed for hindlimb muscle strength. Another functional assessment was the Rotarod test. Here, mice were placed on a rotating bar and kept their balance and position as the bar rotated with increasing speed (10 RPM for 1 minute and then increased 0.2 RPM over the next three minutes). The time until the mouse falls was measured. This test was also repeated multiple times.

[3] = system: dystrophin deficient (mdx) mice; experiment: Grip strength meter, dystrophin deficient (mdx) mice; assay type: in vivo; conditions: Mdx treated
Procedure: as §1, §2

[4] = system: normal (BL10) mice; experiment: VersaMax animal activity monitoring, normal (BL10) mice; assay type: in vivo; conditions: BL10 treated
Procedure: as §1
(§3) Behavioral data was collected using the VersaMax™ animal activity monitoring system. Mice were placed in a monitored box and activity was quantified by different sensors. Data includes horizontal activity, vertical activity and total distance traveled and many other activity parameters were measured. Multiple measurements were made over a 3 day period.

[5] = system: dystrophin deficient (mdx) mice; experiment: VersaMax animal activity monitoring, dystrophin deficient (mdx) mice; assay type: in vivo; conditions: Mdx treated
Procedure: as §1, §3

[6] = system: normal (BL10) mice; experiment: Rotarod test, normal (BL10) mice; assay type: in vivo; conditions: BL10 treated, time until the mouse falls
Procedure: as §1
as §2, with “Here, mice were placed on a rotating bar and kept their balance and position as the bar rotated with increasing speed (10 RPM for 1 minute and then increased 0.2 RPM over the next three minutes).” left out, “This test was also repeated multiple times.” left out

[7] = system: dystrophin deficient (mdx) mice; experiment: Rotarod test, dystrophin deficient (mdx) mice; assay type: in vivo; conditions: Mdx treated, time until the mouse falls
Procedure: as §1
as §2, with “Here, mice were placed on a rotating bar and kept their balance and position as the bar rotated with increasing speed (10 RPM for 1 minute and then increased 0.2 RPM over the next three minutes).” left out, “This test was also repeated multiple times.” left out

[8] = system: heart attack in the mouse model; conditions: administered immediately following a heart attack; Nature 2004; cited from earlier work
[9] = 2 month, 150 micrograms i.p. twice a week

In the case of “thymosin beta 4 (SDKPDMAEIEKFDKSKLKKTETQEKNPLPSKETIEQEKQAGES; Thymosin beta-4; UniProt P62328 2-44, looked up) [43 amino acid, 4.9 kDa ubiquitous polypeptide originally isolated from the thymus]”, the “left ventricular end diastolic pressure (LVEDP)” value [1] is reported as “significantly reduced”, the “left ventricular end diastolic volume” value [1] is reported as “significantly attenuated” and the “left ventricular end systolic volume” value [1] is reported as “significantly attenuated”. For the same substance, the “left ventricular systolic pressure (LVSP)” value [1] was “showed a trend in improvement (i.e., a reduction)”, the “rate of change (velocity) in left ventricular pressure-rise with time (dP/dt)” value [1] was “significantly improved” and the “rate of change (velocity) in left ventricular relaxation” value [1] was “showed a trend in affecting (improving)”. For the same substance, the “pulmonary edema (lung weight)” value ([1]; listed as TB4) was “significantly attenuated”, the “thickening of left ventricle / heart muscle (heart weight)” value ([1]; listed as TB4) was “significantly attenuated” and the “Avg max forelimb strength” value [2, 9] was 5.73 KGF/kg. The “Avg max hindlimb strength” value [2, 9] was 9.18 KGF/kg, the “Avg max forelimb strength” value ([2]; Baseline) was 5.57 KGF/kg and the “Avg max hindlimb strength” value ([2]; Baseline) was 7.35 KGF/kg. For the same substance, the “Avg max forelimb strength” value [3, 9] was 3.78 KGF/kg, the “Avg max hindlimb strength” value [3, 9] was 7.29 KGF/kg and the “Avg max forelimb strength” value ([3]; Baseline) was 4.46 KGF/kg. For the same substance, the “Avg max hindlimb strength” value ([3]; Baseline) was 6.29 KGF/kg, the Avg horizontal activity [4, 9] was 1287 and the Avg movement time [4, 9] was 27 s. The Avg total distance [4, 9] was 239 cm, the Avg vertical activity [4, 9] was 13.1 and the Avg horizontal activity ([4]; Baseline) was 1761. For the same substance, the Avg movement time ([4]; Baseline) was 41 s, the Avg total distance ([4]; Baseline) was 375 cm and the Avg vertical activity ([4]; Baseline) was 28. For the same substance, the Avg horizontal activity [5, 9] was 961, the Avg movement time [5, 9] was 18.9 s and the Avg total distance [5, 9] was 167 cm. It also gave an Avg vertical activity [5, 9] of 8.2, an Avg horizontal activity ([5]; Baseline) of 1071 and an Avg movement time ([5]; Baseline) of 25 s. For the same substance, the Avg total distance ([5]; Baseline) was 209 cm, the Avg vertical activity ([5]; Baseline) was 12 and the Rotorod [6, 9] was 191. It also gave a Rotorod ([6]; Baseline) of 214, a Rotorod [7, 9] of 147 and a Rotorod ([7]; Baseline) of 211. For the same substance, the ejection fraction [8] was “able to improve” and the fractional shortening [8] was “able to improve”.
